This is an account of results in US9884821B2, “N1-cyclic amine-N5-substituted biguanide derivatives, methods of preparing the same and pharmaceutical composition comprising the same” (IMMUNOMET THERAPEUTICS INC., priority 2013, dated 2018).

Assay [1] deals with HCT116 cells. The experiment in a line: Effect of inhibiting cancer cell proliferation (MTT) in HCT116 cells. In kind it is cell-based, human. To be noted: Homo sapiens, HCT-116, 48 h; for inhibition at 100 µM: read-out: Cell growth inhibition (%) at 100 μM; for inhibition at 25 µM: read-out: Cell growth inhibition (%) at 25 μM. The procedure, abridged:
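HCT116 colorectal cells (about 5,000 per well, DMEM with 10% FBS) treated with 100, 25, 6.25, 1.56 or 0.39 μM compound for 48 h. MTT added for 3 h, formazan read at 560 nm; GIC50 taken from viability relative to untreated cells.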

For assay [2], the system named is AMPK. The experiment in a line: AMPK activation effect (AMPK [pT172] ELISA) in MCF7 cells. Type of assay: cell-based, human. The note with it: 24 hours; for AMPK activation effect (%) 10 μM / AMPK activation effect (%) 50 μM / AMPK activation effect (%) 5 μM: AMPKα Thr172 phosphorylation relative to untreated cells; for AC150: concentration at which AMPK activation reached 150%. The procedure, abridged:
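MCF7 cells in DMEM/10% FBS were treated 24 h with compounds at 5, 10 and 50 uM. Lysates (20 μg protein) were assayed by ELISA for AMPKα Thr172 phosphorylation as the activation read-out.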

For orientation: GI50 means the concentration at which growth is held to half of that of the control. What is called inhibition is how much of the control response was suppressed.

Consider `COc1ccc(NC(=N)NC(=N)N2CC=C(C)C2)cc1OC.Cl` [Example 23, N1-(3-methyl)-1,2-dihydropyrrole-N5-(3,4-dimethoxy)phenyl biguanide hydrochloride], for which, in assay [1], the GI50 turned out to be 89.9 µM and the inhibition at 100 µM was found to be 29.5%. In addition, in assay [2], the “AMPK activation effect (%) 10 μM” value is listed as 57%, the “AMPK activation effect (%) 50 μM” value is listed as 279% and the AC150 was determined as 21.3 µM.
Consider `CC1=CCN(C(=N)NC(=N)Nc2ccc(Cl)cc2)C1.Cl` [Example 17, N1-(3-methyl)-1,2-dihydropyrrole-N5-(4-chloro)phenyl biguanide hydrochloride], for which, in assay [1], growth was halved (GI50) at 13.9 µM and the inhibition at 100 µM was 99.7%. Also, in assay [2], the “AMPK activation effect (%) 10 μM” value was found to be 208% and the AC150 came to 4.7 µM.
In the case of `Cl.N=C(NC(=N)N1CC=CC1)Nc1ccc(C(F)(F)F)cc1` [Example 5, N1-1,2-dihydropyrrole-N5-(4-trifluoromethyl)phenyl biguanide hydrochloride], in assay [1], the concentration for 50% growth inhibition (GI50) came out at 18 µM and the inhibition at 100 µM stood at 99.7%. Also, in assay [2], the “AMPK activation effect (%) 10 μM” value came to 235%, the “AMPK activation effect (%) 50 μM” value is on record as 223% and the AC150 worked out at 2.8 µM.
With `COc1ccc(NC(=N)NC(=N)N2CC=CC2)cc1.Cl` [Example 42, N1-1,2-dihydropyrrole-N5-(4-methoxyl)phenyl biguanide hydrochloride], in assay [1], the 50% growth inhibitory concentration (GI50) is more than 100 µM and the inhibition at 100 µM is 14%. Also, in assay [2], the “AMPK activation effect (%) 10 μM” value stood at 157%, the “AMPK activation effect (%) 50 μM” value was 210% and the AC150 turned out to be 14.7 µM.
For `Cl.N=C(NC(=N)N1CC=CCC1)Nc1ccc(Cl)cc1` [Example 35, N1-1,2,3,6-tetrahydropyridine-N5-(4-chloro)phenyl biguanide hydrochloride], in assay [1], the 50% growth inhibitory concentration (GI50) came out at 18.4 µM and the inhibition at 100 µM stood at 99.1%. Also, in assay [2], the “AMPK activation effect (%) 10 μM” value is listed as 314% and the AC150 worked out at 2.4 µM.
Turning to `CC1CCCN(C(=N)NC(=N)Nc2ccc(OC(F)(F)F)c(F)c2)C1.Cl` (stereo not drawn) [Example 75, N1-(3-methyl)piperidine-N5-(3-fluoro, 4-trifluoromethoxy)phenyl biguanide hydrochloride], in assay [1], the GI50 turned out to be 9.3 µM and the inhibition at 25 µM was found to be 100%. For the same molecule, in assay [2], the “AMPK activation effect (%) 5 μM” value is on record as 133%, the “AMPK activation effect (%) 10 μM” value is 259% and the AC150 amounted to 3.9 µM.
Turning to `CC1CCCC(C)N1C(=N)NC(=N)Nc1ccc(C(F)(F)F)cc1.Cl` (stereo not drawn) [Example 91, N1-(2,6-dimethyl)piperidine-N5-(4-trifluoromethyl)phenyl biguanide hydrochloride], in assay [1], the 50% growth inhibitory concentration (GI50) stood at 11.4 µM and the inhibition at 25 µM stood at 100%. Further, in assay [2], the “AMPK activation effect (%) 5 μM” value was found to be 108%, the “AMPK activation effect (%) 10 μM” value amounted to 214% and the AC150 turned out to be 5.6 µM.
As for `Cl.N=C(NC(=N)N1CC=CC1)Nc1ccc(OC(F)(F)F)cc1` [Example 4, N1-1,2-dihydropyrrole-N5-(4-trifluoromethoxy)phenyl biguanide hydrochloride], in assay [1], halving of growth (GI50) required 19.1 µM and the inhibition at 100 µM turned out to be 99.7%. Besides, in assay [2], the “AMPK activation effect (%) 10 μM” value turned out to be 201%, the “AMPK activation effect (%) 50 μM” value is on record as 584% and the AC150 was found to be 5.0 µM.
Consider `Cl.N=C(NC(=N)N1CC=CCC1)Nc1cccc(OC(F)(F)F)c1` [Example 30, N1-1,2,3,6-tetrahydropyridine-N5-(3-trifluoromethoxy)phenyl biguanide hydrochloride], for which, in assay [1], the GI50 amounted to 7.5 µM and the inhibition at 100 µM was determined as 99.7%. Further, in assay [2], the “AMPK activation effect (%) 10 μM” value is 703% and the AC150 was 0.53 µM.
Turning to `CC1=CCN(C(=N)NC(=N)Nc2ccc(Br)cc2)C1.Cl` [Example 21, N1-(3-methyl)-1,2-dihydropyrrole-N5-(4-bromo)phenyl biguanide hydrochloride], in assay [1], halving of growth (GI50) required 10.4 µM and the inhibition at 100 µM came to 99.4%. Also, in assay [2], the “AMPK activation effect (%) 10 μM” value is 156% and the AC150 is 11.9 µM.
Regarding `Cl.N=C(NC(=N)N1CC=CC1)Nc1ccc(OC(F)(F)F)c(Cl)c1` [Example 10, N1-1,2-dihydropyrrole-N5-(3-chloro,4-trifluoromethoxy)phenyl biguanide hydrochloride], in assay [1], the GI50 came out at 8.3 µM and the inhibition at 100 µM came out at 97.9%. Moreover, in assay [2], the “AMPK activation effect (%) 10 μM” value came out at 408% and the AC150 worked out at 1.4 µM.
Consider `Cc1cccc(NC(=N)NC(=N)N2CC=CC2)c1.Cl` [Example 51, N1-1,2-dihydropyrrole-N5-(3-methyl)phenyl biguanide hydrochloride], for which, in assay [1], growth was halved (GI50) at 102 µM and the inhibition at 100 µM amounted to 48.7%. In assay [2], the “AMPK activation effect (%) 10 μM” value stood at 241%, the “AMPK activation effect (%) 50 μM” value came to 409% and the AC150 turned out to be 3.1 µM.
For the molecule `Cl.N=C(NC(=N)N1CC=CCC1)Nc1ccc(C(F)(F)F)cc1` [Example 29, N1-1,2,3,6-tetrahydropyridine-N5-(4-trifluoromethyl)phenyl biguanide hydrochloride], in assay [1], the GI50 amounted to 9.5 µM and the inhibition at 100 µM amounted to 100%. Besides, in assay [2], the “AMPK activation effect (%) 10 μM” value was 551% and the AC150 is 1.3 µM.
Take `Cl.N=C(NC(=N)N1CC=CCC1)Nc1cccc(C(F)(F)F)c1` [Example 31, N1-1,2,3,6-tetrahydropyridine-N5-(3-trifluoromethyl)phenyl biguanide hydrochloride]: in assay [1], the GI50 is 7.8 µM and the inhibition at 100 µM amounted to 99.5%. For the same molecule, in assay [2], the “AMPK activation effect (%) 10 μM” value stood at 391% and the AC150 was found to be 1.8 µM.
For the molecule `CC1CCCN(C(=N)NC(=N)Nc2ccc(C(F)(F)F)c(F)c2)C1.Cl` (stereo not drawn) [Example 70, N1-(3-methyl)piperidine-N5-(3-fluoro, 4-trifluoromethyl)phenyl biguanide hydrochloride], in assay [1], the GI50 is 3.9 µM and the inhibition at 25 µM is 100%. For the same molecule, in assay [2], the “AMPK activation effect (%) 5 μM” value is on record as 365%, the “AMPK activation effect (%) 10 μM” value turned out to be 602% and the AC150 is 0.9 µM.
As to `CC1CCCN(C(=N)NC(=N)Nc2ccc(Cl)cc2)C1.Cl` (stereo not drawn) [Example 87, N1-(3-methyl)piperidine-N5-(4-chloro)phenyl biguanide hydrochloride], in assay [1], the concentration for 50% growth inhibition (GI50) is 10 µM and the inhibition at 25 µM was 100%. Further, in assay [2], the “AMPK activation effect (%) 5 μM” value turned out to be 219%, the “AMPK activation effect (%) 10 μM” value amounted to 297% and the AC150 was determined as 1.9 µM.
Turning to `CC1CCCN(C(=N)NC(=N)NCc2ccc(Cl)cc2)C1.Cl` (stereo not drawn) [Example 66, N1-(3-methyl)piperidine-N5-(4-chloro)benzyl biguanide hydrochloride], in assay [1], growth was halved (GI50) at 18.5 µM and the inhibition at 25 µM amounted to 67.4%. For the same molecule, in assay [2], the “AMPK activation effect (%) 5 μM” value was determined as 101%, the “AMPK activation effect (%) 10 μM” value is reported as 204% and the AC150 was 6.2 µM.
With `Cl.N=C(NC(=N)N1CC=CCC1)Nc1ccc(OC(F)(F)F)c(Cl)c1` [Example 11, N1-1,2,3,6-tetrahydropyridine-N5-(3-chloro,4-trifluoromethoxy) phenyl biguanide hydrochloride], in assay [1], the GI50 amounted to 3 µM and the inhibition at 100 µM stood at 98%. In addition, in assay [2], the “AMPK activation effect (%) 10 μM” value is 637% and the AC150 was determined as 1.4 µM.
For the molecule `Cl.N=C(NC(=N)N1CC=CCC1)Nc1ccc(F)c(C(F)(F)F)c1` [Example 32, N1-1,2,3,6-tetrahydropyridine-N5-(4-fluoro, 3-trifluoromethyl)phenyl biguanide hydrochloride], in assay [1], the concentration for 50% growth inhibition (GI50) is 7.9 µM and the inhibition at 100 µM stood at 99.4%. Further, in assay [2], the “AMPK activation effect (%) 10 μM” value is reported as 837% and the AC150 stood at 0.62 µM.
On to `CC1=CCN(C(=N)NC(=N)Nc2ccc(C(F)(F)F)cc2)C1.Cl` [Example 16, N1-(3-methyl)-1,2-dihydropyrrole-N5-(4-trifluoromethyl)phenyl biguanide hydrochloride], for which, in assay [1], halving of growth (GI50) required 10.8 µM and the inhibition at 100 µM is 99.3%. For the same molecule, in assay [2], the “AMPK activation effect (%) 10 μM” value is reported as 398% and the AC150 came out at 1.7 µM.
Regarding `CC1CCCC(C)N1C(=N)NC(=N)Nc1ccc(Cl)c(C(F)(F)F)c1.Cl` (stereo not drawn) [Example 94, N1-(2,6-dimethyl)piperidine-N5-(4-chloro, 3-trifluoromethyl)phenyl biguanide hydrochloride], in assay [1], it took 2.8 µM to inhibit growth by half (GI50) and the inhibition at 25 µM was found to be 100%. Also, in assay [2], the “AMPK activation effect (%) 5 μM” value is on record as 328%, the “AMPK activation effect (%) 10 μM” value stood at 643% and the AC150 was found to be 1.1 µM.
For the molecule `Cl.N=C(NC(=N)N1CC=CCC1)Nc1ccccc1` [Example 39, N1-1,2,3,6-tetrahydropyridine-N5-phenyl biguanide hydrochloride], in assay [1], the GI50 worked out at 124 µM and the inhibition at 100 µM amounted to 39.8%. Besides, in assay [2], the “AMPK activation effect (%) 10 μM” value is on record as 96%, the “AMPK activation effect (%) 50 μM” value is listed as 138% and the AC150 is 67.2 µM.
Regarding `COc1ccc(NC(=N)NC(=N)N2CC=CCC2)cc1.Cl` [Example 40, N1-1,2,3,6-tetrahydropyridine-N5-(4-methoxyl)phenyl biguanide hydrochloride], in assay [1], the GI50 was more than 100 µM and the inhibition at 100 µM turned out to be 37.4%. Further, in assay [2], the “AMPK activation effect (%) 10 μM” value was determined as 122%, the “AMPK activation effect (%) 50 μM” value amounted to 163% and the AC150 was 37.8 µM.
